Data: US9174935B2, “Transition metal complexes of bis[thiohydrazide amide] compounds” (Synta Pharmaceuticals Corp., priority 2008, dated 2015)

Legend:
[1] = tested on: stage IV metastatic melanoma; conditions: in combination with paclitaxel, relative to patients treated with paclitaxel alone; cited from earlier work
[2] = tested on: M14 melanoma cells; assay: Cytotoxicity in confluent M14 cells, cell viability by CCK8 assay; format: cell-based; conditions: Homo sapiens, M14, 48 h
Procedure: M14 melanoma cells were seeded at 50,000 cells per well of 96-well plate in 100 μl of Dulbecco's minimum essential medium (DMEM) supplemented with 10% fetal bovine serum. Cells were cultured at 37° C. under 5% CO2-95% air. After 16 hours of incubation, the test compound was added to the cell culture. The compound was first diluted in 100% dimethyl sulfoxide (DMSO) at 400-fold of final concentrations actually used in the assay. The DMSO solution was next diluted 20 fold with the culture medium, and then finally added to the assay wells at another 20-fold dilution. The assay medium included the test compound with concentrations as indicated with 0.25% DMSO. Cell viability was measured with a CCK8 assay (as described in the Technical Manual for Cell Counting Kit-8, Product #CK04-11, CK04-13 and CK04-20, Dojindo Molecular Technologies, Inc. MD; Tantular, I. S. et al. Tropical Medicine and International Health, 8(6), 569-574, 2003) in the last 15 min after a 48 h incubation with the test compound. Each bar of the figure expresses average percent inhibition against vehicle (0.25% DMSO) control (n=4). Error bars indicate standard deviation.

Row | Structure (SMILES) | time to progression [1] | IC50 [2]
1 | CN(NC(=O)CC(=O)NN(C)C(=S)c1ccccc1)C(=S)c1ccccc1 [N-malonyl-bis(N′-methyl-N′-thiobenzoylhydrazide)] | increase the time to progression | 
2 | CN(NC(=O)CC(=O)NN(C)C(=S)c1ccccc1)C(=S)c1ccccc1 [A] |  | > 12.5 µM
